Assay results published in patent publication US11723947B2, “Anti-senescence compounds and uses thereof” (Erasmus University Medical Center Rotterdam, priority 2015, dated 2023).
Square brackets hold non-standard residues; d marks the D form. Ends that are not written are not given here.

What was measured:
LOX-IMVI = assay: Viability of LOX-IMVI metastatic melanoma cells; type: cell-based, human
Procedure: Assay as in FIG. 2C with increasing doses of Vemurafenib. […] LOX-IMVI however is resistant. […] Experiment as in FIG. 2C, but with LOX-IMVI treated with FOXO4 DRI alone, the BRAF^V600E-inhitors Vemurafenib or Dabrafenib, or the MEK inhibitor Trametinib alone, or a combination hereof. […] LOX-IMVI cells were incubated with FOXO4 DRI or Vemurafenib alone or in combination. The cells were co-treated with the pan-caspase inhibitor QVD-OPH to block caspase-dependent cell death. After 3 days the media was refreshed with new QVD-OPH containing media, but in the absence of FOXO4 DRI or Vemurafenib. At day 5 after initial treatment the cells were fixed and stained for Cytochrome C. Cytochrome C is present in the mitochondria in viable cells and is released into the cytosol when apoptosis is activated. Plotted are the number of cells showing release of Cytochrome C. […] LOX-IMVI were assessed for viability in the presence of FOXO4 DRI, the oxidative stress inhibitor N-Acetyl Cysteine (NAC) or the oxidative stressor H2O2. […]
LOX-IMVI cells were plated for (i) cell viability assay as in example 1 by AqueousOne MTT assay, (ii) apoptosis by Cytochrome C release, (iii) longitudinal cell density assay, and incubated with the FOXO4 DRI peptide, Vemurafenib/Trametinib, or their combination, respectively. […] The % of cells with Cytochrome C release was scored.

[1] = tested on: Senescent and control IMR90
Procedure: The selectivity index (S.I.) for the EC50 values was determined after […] (GraphPad Prism) of the curves. […] Real-time cell density was measured using an xCELLigence detection system (ACEA Biosciences). Prior to the start of the measurement 50 μL DMEM 10% FCS was added to each well of an E-plate view 16 (Roche) to determine background signal. Non-senescent (2000 cells per well) and senescent (5000 cells/well) IMR90 fibroblasts were then plated in 150 μl medium. 16 hours later the E-plate was placed in the xCELLigence reader and the cell density was recorded every 30 minutes. […] Measurements continued for the indicated time-points. […] Experiment as in FIG. 2C, but with the indicated peptides. […] Cells were plated in 4-well Poly-L-Lysine coated glass bottom 35 mm dishes (D141410; Matsumi, Japan) and incubated with NucView488 Caspase-3 (4440; Essen Bioscience). […] 8h after addition the real-time imaging was initiated and every 30 min a grid of 3×3 pictures was imaged. The imaging continued for another 6 days and the images were concatenated using Zen imaging software. […] After 6 days cell viability was determined as in FIG. 2C). […] Experiment as in FIG. 2C, but according to the indicated treatment plan. Instead of one single dose, three doses were given (one day in between) of ⅓ that concentration each time. […] Left: Experiment as in FIG. 2C, but on cells pretreated once daily for two days with IL-1α Receptor Antagonist (RA), which blocks IL-1α/β signaling, recombinant IL-6 and recombinant IL-1α/β. […] Right: Similar experiment as in the left panel, except viability measured one day earlier. […] In senescent cells p53 signaling causes upregulation of the cell-cycle arrest and pro-survival protein p21Cip1. […] Experiment as in FIG. 2K. […] Experiment as in FIG. 2c, but with control and senescent IMR90 stable transduced with shRNAs against p53 or a control shRNA (shGFP).
A) Control IMR90 and IMR90 induced to senesce through 10Gy IR were plated in triplicate for each condition in a 96-well plate. […] After 6 days viability was determined through AqeousOne celltiter assay (Promega) according to the manufacturer's instructions.
Non-senescent (=“normal”, proliferating) IMR90 cells (ATCC #CCL-186, a diploid primary human fibroblast adherent cell line derived from fetal lung tissue) were irradiated with 10Gy Gamma-IR (IR=irradiation). After 7 days these cells are senescent and can be used for experiments comparing them to their non-irradiated (=non-senescent) counterparts. Senescent and non-senescent IMR90 fibroblasts were plated for longitudinal cell density measurement using the xCELLigence system (ACEA Biosciences, Inc., San Diego, Calif.).
(§1) 5000 senescent (obtained as described above) and 2000 non-senescent IMR90 fibroblasts were plated in 96-well plates incubated with concentrations of NQDI between 0-20 μM and after 6 days cell viability was determined by AqueousOne CellTiter (MTT) assay according to the manufacturer's instructions.
as §1, with “R406, ranging from 16, 32, 64 to 128 nM” for “NQDI between 0-20 μM”
Normal human IMR90 fibroblasts were exposed to 10 Gy Ionizing Radiation or treated 3× (bidaily) with 0.5 μM Doxorubicin. Seven days later they were processed for SA-β-Gal staining to visualize senescent cells. […] DAPI was used as a counterstain to visualize nuclei. […] After 6 days the cell viability was determined using an AqueousOne Celltiter (MTT) assay according to the manufacturer's instructions.

[2] = tested on: senescent and non-senescent IMR90 fibroblasts; assay: Real-time cell density, xCELLigence, senescent and non-senescent IMR90 fibroblasts; type: cell-based, human; details: 2 μM on three consecutive days (24, 48 and 72 h)
Procedure: Measurements continued for the indicated time-points. […] Experiment as in FIG. 2K.
Cell density after time of plating was followed. […] NQDI is apparently rather safe even at high doses as as non-senescent cells are not affected by 20 uM NQDI.

[3] = tested on: fast aging Xpd^TTD/TTD mice; assay: Healthspan, organ function and blood parameters of fast aging Xpd^TTD/TTD and wildtype mice; type: in vivo, mouse; details: 5 mg/kg i.v. day 0, 2 and 4, end of experiment

Compound: CC(C)(C)c1nc(-c2cccc(NS(=O)(=O)c3c(F)cccc3F)c2F)c(-c2ccnc(N)n2)s1 [Dabrafenib]
- LOX-IMVI viability, agent on its own (LOX-IMVI; single agent): do not markedly affect LOX-IMVI viability

Compound: OO [H2O2]
- LOX-IMVI viability, individually (LOX-IMVI; FOXO4 DRI or H2O2 alone): only marginally influenced LOX-IMVI viability

Compound: CCOC(=O)c1c2c3c(cccc3[nH]c1=O)C(=O)c1ccccc1-2 [NQDI, 2,7-Dihydro-2,7-dioxo-3H-naphtho[1,2,3-de]quinoline-1-carboxylic acid ethyl ester]
- % viability over Mock, senescent and non-senescent IMR90 ([1]; 0-20 μM, 6 days): clearly reduces cell viability in senescent, but not non-senescent IMR90 fibroblasts
- effect on non-senescent cells at high dose ([1]; 20 uM): not affected
- cell density, sequential rounds [2]: enhance its effectivity towards senescent cell clearance

Compound: [dL][dT][dL][dR][dK][dE][dP][dA][dS][dE][dI][dA][dQ][dS][dI][dL][dE][dA][dY][dS][dQ][dN]G[dW][dA][dN][dR][dR][dS]GG[dK][dR][dP][dP][dP][dR][dR][dR][dQ][dR][dR][dK][dK][dR]G [FOXO4 DRI]
- toxicity to non-senescent cells [1]: proved to be safe to non-senescent cells
- toxicity to the hematopoietic system (blood parameters) [3]: does not induce toxicity to the hematopoietic system
